Format in all cases: biochemical
One assay has as its target hEXO1, Isoform1 (Homo sapiens (Human), UniProt Q9UQ84). Briefly: Enzymatic IC50 assay, FAM-labeled DNA oligomer substrate, fluorescence intensity (EXO1). The note with it: hEXO1 6 nM, substrate 30 nM, reaction time 60 minutes, 23° C. The protocol:
(§1) FEN1, EXO1 or XPG enzyme was incubated with compound or vehicle (DMSO) and the FAM-labeled DNA oligomer substrate in a microtiter plate. The stop buffer contains EDTA to stop the enzymatic reaction. The plate is read for fluorescence intensity. The high control (DMSO) with high fluorescence intensity represents no inhibition of enzymatic reaction while the low control (10 μM) with low fluorescence intensity represents full inhibition of enzymatic reaction.
(§2) • FEN1 • hFEN1: 70 pM • Substrate: 100 nM • Reaction time: 20 minutes • EXO1 • hEXO1: 6 nM, Isoforml • Substrate: 30 nM • Reaction time: 60 minutes • XPG • hXPG: 100 nM • Substrate: 100 nM • Reaction time: 120 minutes
(§3) Annealing Buffer: 50 mM Tris-HCl, 50 mM NaCl, 1 mM DTT Assay buffer: 50 mM Tris-HCl pH 8.0, 10 mM MgCl2, 0.01% BSA, 1 mM DTT Stop buffer: 50 mM EDTA in assay buffer Temperature: 23° C. Total volume: 40 μl Controls: • 0% inhibition control: DMSO • 100% inhibition control: 10 μM (final) 5-chloro-3-hydroxy-1,3-dihydroquinazoline-2,4-dione Enzyme Reaction and Detection: • 1. Prepare 25 μM intermediate stock of the substrate by diluting SEQ ID NO:1, SEQ ID NO:2, and SEQ ID NO:3 in annealing buffer, in a PCR tube. • 2. Place the PCR tube on a heat block, heat at 95° C. for 3 minutes, then drop in 0.2° C. increments over 2 minutes, stopping at 25° C. • 3. Remove the tube and let the tube cool at room temperature. • 4. Transfer 10 μL of 3× final concentration test compounds or DMSO to the appropriate wells of a microtiter plate. • 5. Transfer 10 μL of 3× final concentration enzyme in assay buffer or assay buffer alone to the appropriate wells. • 6. Incubate the plate at room temperature for 15 minutes. • 7. Transfer 10 μL of 3× substrate in assay buffer to all the test wells. • 8. Incubate the plate at room temperature for prescribed reaction time. • 9. Centrifuge the plate at 1000 rpm for 1 minute. • 10. Transfer 10 μL of stop buffer to all the test wells. • 11. Centrifuge the plate at 1000 rpm for 1 minute. • 12. Read the plate on a plate reader.

In the next assay the target is hXPG (Homo sapiens (Human), UniProt P28715). Briefly: Enzymatic IC50 assay, FAM-labeled DNA oligomer substrate, fluorescence intensity (XPG). The note with it: hXPG 100 nM, substrate 100 nM, reaction time 120 minutes, 23° C. The procedure:
as §1, §2, §3

For another assay, the target named is hFEN1 (Homo sapiens (Human), UniProt P39748). Briefly: Enzymatic IC50 assay, FAM-labeled DNA oligomer substrate, fluorescence intensity (FEN1). The following applies: hFEN1 70 pM, substrate 100 nM, reaction time 20 minutes, 23° C. An outline of the steps:
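FEN1, EXO1 or XPG was preincubated 15 min with compound, then the FAM-labelled DNA oligomer substrate was added in Tris-HCl pH 8.0 with 10 mM MgCl2 at 23° C. FEN1 was 70 pM with 100 nM substrate for 20 min, EXO1 6 nM with 30 nM for 60 min, and XPG 100 nM with 100 nM for 120 min. Reactions were EDTA-stopped and read by fluorescence intensity.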

What is called IC50 is the midpoint of a concentration-inhibition curve.

hFEN1, sequence (P39748 whole entry): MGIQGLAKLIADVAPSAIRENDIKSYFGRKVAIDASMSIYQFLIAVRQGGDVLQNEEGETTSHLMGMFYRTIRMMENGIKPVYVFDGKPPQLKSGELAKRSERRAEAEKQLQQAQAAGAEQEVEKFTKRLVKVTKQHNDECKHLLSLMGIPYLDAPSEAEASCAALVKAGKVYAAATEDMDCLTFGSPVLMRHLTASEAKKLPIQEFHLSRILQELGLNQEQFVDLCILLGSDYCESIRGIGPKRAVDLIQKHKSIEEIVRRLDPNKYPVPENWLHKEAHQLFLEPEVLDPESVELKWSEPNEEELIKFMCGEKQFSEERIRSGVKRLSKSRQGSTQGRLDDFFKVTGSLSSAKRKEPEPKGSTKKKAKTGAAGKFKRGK
hXPG, sequence (P28715 whole entry): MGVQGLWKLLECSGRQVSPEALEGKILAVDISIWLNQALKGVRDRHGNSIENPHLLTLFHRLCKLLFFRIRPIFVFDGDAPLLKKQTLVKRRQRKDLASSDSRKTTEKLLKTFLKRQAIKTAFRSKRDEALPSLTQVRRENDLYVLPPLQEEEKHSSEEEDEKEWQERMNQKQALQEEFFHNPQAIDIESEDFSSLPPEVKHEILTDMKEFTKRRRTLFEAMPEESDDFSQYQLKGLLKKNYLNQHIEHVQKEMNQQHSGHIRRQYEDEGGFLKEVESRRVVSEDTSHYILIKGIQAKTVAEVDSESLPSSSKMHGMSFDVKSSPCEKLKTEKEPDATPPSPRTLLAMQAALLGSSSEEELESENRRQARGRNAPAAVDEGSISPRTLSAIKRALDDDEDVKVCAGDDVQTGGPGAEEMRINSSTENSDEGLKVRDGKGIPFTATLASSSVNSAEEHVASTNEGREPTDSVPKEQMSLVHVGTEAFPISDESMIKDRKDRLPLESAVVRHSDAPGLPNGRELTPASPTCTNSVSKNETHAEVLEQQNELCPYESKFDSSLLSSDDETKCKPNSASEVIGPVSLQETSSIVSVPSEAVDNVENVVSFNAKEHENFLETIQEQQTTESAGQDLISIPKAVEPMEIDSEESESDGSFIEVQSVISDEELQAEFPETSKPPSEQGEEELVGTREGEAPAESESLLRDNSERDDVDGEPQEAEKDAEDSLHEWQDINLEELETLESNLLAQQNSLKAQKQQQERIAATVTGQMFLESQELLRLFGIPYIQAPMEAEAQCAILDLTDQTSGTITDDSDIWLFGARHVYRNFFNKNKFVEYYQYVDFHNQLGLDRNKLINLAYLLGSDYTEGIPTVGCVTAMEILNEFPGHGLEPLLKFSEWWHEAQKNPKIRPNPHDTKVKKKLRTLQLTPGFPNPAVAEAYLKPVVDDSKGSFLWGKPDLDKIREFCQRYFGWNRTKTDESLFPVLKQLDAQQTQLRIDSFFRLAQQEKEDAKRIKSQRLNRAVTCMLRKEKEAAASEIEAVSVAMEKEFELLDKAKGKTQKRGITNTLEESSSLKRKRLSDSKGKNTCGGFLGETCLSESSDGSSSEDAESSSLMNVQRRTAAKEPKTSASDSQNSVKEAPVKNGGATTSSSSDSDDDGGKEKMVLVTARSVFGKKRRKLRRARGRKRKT
hEXO1, Isoform1, sequence (Q9UQ84 whole entry, canonical isoform): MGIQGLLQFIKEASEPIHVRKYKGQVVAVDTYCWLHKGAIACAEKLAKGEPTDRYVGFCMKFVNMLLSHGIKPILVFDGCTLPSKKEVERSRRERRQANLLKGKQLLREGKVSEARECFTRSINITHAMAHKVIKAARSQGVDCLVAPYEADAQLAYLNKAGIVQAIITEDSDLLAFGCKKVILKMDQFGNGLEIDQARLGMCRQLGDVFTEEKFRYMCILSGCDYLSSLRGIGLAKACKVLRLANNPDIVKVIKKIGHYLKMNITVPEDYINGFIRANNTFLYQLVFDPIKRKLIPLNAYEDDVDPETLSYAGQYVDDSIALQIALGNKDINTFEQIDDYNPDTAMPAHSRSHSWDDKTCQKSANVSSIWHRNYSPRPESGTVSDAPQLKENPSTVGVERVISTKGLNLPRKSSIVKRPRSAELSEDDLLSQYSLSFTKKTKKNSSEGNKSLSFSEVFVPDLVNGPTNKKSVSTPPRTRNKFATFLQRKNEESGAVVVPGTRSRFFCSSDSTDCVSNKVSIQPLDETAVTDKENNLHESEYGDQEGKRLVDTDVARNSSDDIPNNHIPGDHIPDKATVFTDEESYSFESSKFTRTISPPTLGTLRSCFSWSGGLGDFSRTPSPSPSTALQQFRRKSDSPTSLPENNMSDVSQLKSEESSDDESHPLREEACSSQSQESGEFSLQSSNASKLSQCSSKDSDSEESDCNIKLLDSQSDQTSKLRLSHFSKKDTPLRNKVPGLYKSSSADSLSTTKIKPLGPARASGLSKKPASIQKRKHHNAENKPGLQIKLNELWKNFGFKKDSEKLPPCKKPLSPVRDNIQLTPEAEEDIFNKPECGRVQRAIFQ

As for `O=C(O)c1c(O)c(=O)n(Cc2cccc(Br)c2)c2ccsc12` [Example 1, 4-(3-bromobenzyl)-6-hydroxy-5-oxo-4,5-dihydrothieno[3,2-b]pyridine-7-carboxylic acid], the IC50 on hEXO1, Isoform1 lay in the range of 2250 to 10000 nM; on hXPG, 2250 to 10000 nM; on hFEN1 it was 250 to 750 nM.

Regarding `CC(=O)Nc1cccc(-c2cccc(Cn3c(=O)c(O)c(C(=O)O)c4sccc43)c2)c1` [Example 2, 4-((3′-acetamido-[1,1′-biphenyl]-3-yl)methyl)-6-hydroxy-5-oxo-4,5-dihydrothieno[3,2-b]pyridine-7-carboxylic acid], the half-maximal inhibitory concentration (IC50) at hEXO1, Isoform1 was 2250 to 10000 nM; against hXPG it was 2250 to 10000 nM; against hFEN1, 250 to 750 nM.

For `O=C(O)c1c(O)c(=O)n(Cc2ccccc2)c2ccsc12` [Example 3, 4-benzyl-6-hydroxy-5-oxo-4,5-dihydrothieno[3,2-b]pyridine-7-carboxylic acid], the IC50 on hEXO1, Isoform1 was 2250 to 10000 nM; on hXPG it was 2250 to 10000 nM; against hFEN1, 750 to 2250 nM.

Regarding `O=C(O)c1c(O)c(=O)n(Cc2ccc(Br)cc2)c2ccsc12` [Example 5, 4-(4-bromobenzyl)-6-hydroxy-5-oxo-4,5-dihydrothieno[3,2-b]pyridine-7-carboxylic acid], the half-maximal inhibitory concentration (IC50) fell in the range of 2250 to 10000 nM against hEXO1, Isoform1; 2250 to 10000 nM against hXPG; 250 to 750 nM against hFEN1.

For `CC(=O)Nc1cccc(Cn2c(=O)c(O)c(C(=O)O)c3sccc32)c1` [Example 7, 4-[(3-acetamidophenyl)methyl]-6-hydroxy-5-oxo-thieno[3,2-b]pyridine-7-carboxylic acid], the IC50 at hEXO1, Isoform1 was 750 to 2250 nM; at hXPG, 2250 to 10000 nM; against hFEN1, less than 200 nM.

For the compound `COc1ccc(Cn2c(=O)c(O)c(C(=O)O)c3sccc32)cc1` [Example 12, 6-hydroxy-4-[(4-methoxyphenyl)methyl]-5-oxo-thieno[3,2-b]pyridine-7-carboxylic acid], the IC50 was 2250 to 10000 nM against hEXO1, Isoform1; 2250 to 10000 nM on hXPG; less than 200 nM against hFEN1.

Consider `CS(=O)(=O)Nc1ccc(Cn2c(=O)c(O)c(C(=O)O)c3sccc32)cc1` [Example 16, 6-hydroxy-4-[[4-(methanesulfonamido)phenyl]methyl]-5-oxo-thieno[3,2-b]pyridine-7-carboxylic acid], for which the IC50 against hEXO1, Isoform1 was 250 to 750 nM; at hXPG, 2250 to 10000 nM; against hFEN1, less than 200 nM.

As to `O=C(O)c1c(O)c(=O)n(Cc2cn(-c3ccccc3)nn2)c2ccsc12` [Example 18, 6-hydroxy-5-oxo-4-((1-phenyl-1H-1,2,3-triazol-4-yl)methyl)-4,5-dihydrothieno[3,2-b]pyridine-7-carboxylic acid], the IC50 was 250 to 750 nM at hEXO1, Isoform1; 750 to 2250 nM against hXPG; 250 to 750 nM at hFEN1.

Consider `COc1ccc(Cn2c(=O)c(O)c(C(=O)O)c3sccc32)cn1` [Example 98, 6-hydroxy-4-[(6-methoxypyridin-3-yl)methyl]-5-oxo-4,5-dihydrothieno[3,2-b]pyridine-7-carboxylic acid], for which the IC50 fell in the range of 2250 to 10000 nM on hEXO1, Isoform1 and 2250 to 10000 nM on hXPG.

Take `O=C(O)c1c(O)c(=O)n(Cc2cnc3ccccn23)c2ccsc12` [Example 100, 6-hydroxy-4-(imidazo[1,2-a]pyridin-3-ylmethyl)-5-oxo-4,5-dihydrothieno[3,2-b]pyridine-7-carboxylic acid]: the IC50 against hEXO1, Isoform1 lay within 750 to 2250 nM; at hXPG, 2250 to 10000 nM.

Consider `COc1ccc(Cn2cc(Cn3c(=O)c(O)c(C(=O)O)c4sccc43)cn2)cc1` [Example 126, 6-hydroxy-4-{[1-(4-methoxybenzyl)-1H-pyrazol-4-yl]methyl}-5-oxo-4,5-dihydrothieno[3,2-b]pyridine-7-carboxylic acid], for which the IC50 lay in the range of 2250 to 10000 nM against hEXO1, Isoform1 and 2250 to 10000 nM against hXPG.

On to `O=C(O)c1c(O)c(=O)n(Cc2cnn(Cc3ncc4ccccn34)c2)c2ccsc12` [Example 142], for which the values for the IC50 against hXPG and against hFEN1 were 2250 to 10000 nM and less than 200 nM, respectively.

On to `Cn1ncc(Cn2c(=O)c(O)c(C(=O)O)c3sccc32)c1-c1ccccc1` [Example 160, 6-hydroxy-4-[(1-methyl-5-phenyl-1H-pyrazol-4-yl)methyl]-5-oxo-4,5-dihydrothieno[3,2-b]pyridine-7-carboxylic acid], for which the IC50 on hEXO1, Isoform1 was greater than 10000 nM; at hFEN1 it was greater than 10000 nM.

Consider `COc1ccc(-n2cc(Cn3c(=O)c(O)c(C(=O)O)c4sccc43)c(Br)n2)cc1` [Example 161, 4-{[3-bromo-1-(4-methoxyphenyl)-1H-pyrazol-4-yl]methyl}-6-hydroxy-5-oxo-4,5-dihydrothieno[3,2-b]pyridine-7-carboxylic acid], for which the IC50 is 750 to 2250 nM on hEXO1, Isoform1 and 250 to 750 nM against hFEN1.

For `Cc1nn(C)cc1Cn1c(=O)c(O)c(C(=O)O)c2sccc21` [Example 162, 4-[(1,3-dimethyl-1H-pyrazol-4-yl)methyl]-6-hydroxy-5-oxo-4,5-dihydrothieno[3,2-b]pyridine-7-carboxylic acid], the IC50 lay in the range of 2250 to 10000 nM at hEXO1, Isoform1 and 750 to 2250 nM against hFEN1.

With `O=C(O)Cn1cc(Cn2c(=O)c(O)c(C(=O)O)c3sccc32)cn1` [Example 163, 4-{[1-(carboxymethyl)-1H-pyrazol-4-yl]methyl}-6-hydroxy-5-oxo-4,5-dihydrothieno[3,2-b]pyridine-7-carboxylic acid], the concentration for half-maximal inhibition (IC50) on hEXO1, Isoform1 was 2250 to 10000 nM; at hFEN1, less than 200 nM.

Take `O=C(O)c1c(O)c(=O)n(Cc2cnc3c(Br)cccn23)c2ccsc12` [Example 164, 4-[(8-bromoimidazo[1,2-a]pyridin-3-yl)methyl]-6-hydroxy-5-oxo-4,5-dihydrothieno[3,2-b]pyridine-7-carboxylic acid]: the IC50 on hEXO1, Isoform1 was 250 to 750 nM; against hFEN1 it was 250 to 750 nM.

With `COc1cc(-c2cccn3c(Cn4c(=O)c(O)c(C(=O)O)c5sccc54)cnc23)ccn1` [Example 165, 6-hydroxy-4-{[8-(2-methoxypyridin-4-yl)imidazo[1,2-a]pyridin-3-yl]methyl}-5-oxo-4,5-dihydrothieno[3,2-b]pyridine-7-carboxylic acid], the IC50 fell in the range of 750 to 2250 nM against hEXO1, Isoform1 and 750 to 2250 nM on hFEN1.

In the case of `CS(=O)(=O)c1ccc(-c2ncc(Cn3c(=O)c(O)c(C(=O)O)c4sccc43)s2)cc1` [Example 166, 6-hydroxy-4-({2-[4-(methylsulfonyl)phenyl)thiazol-5-yl)methyl)-5-oxo-4,5-dihydrothieno[3,2-b]pyridine-7-carboxylic acid], the 50% inhibitory concentration (IC50) was 250 to 750 nM against hEXO1, Isoform1 and 250 to 750 nM at hFEN1.

Turning to `CS(=O)(=O)Nc1ccc(-c2ncc(Cn3c(=O)c(O)c(C(=O)O)c4sccc43)s2)cc1` [Example 167, 6-hydroxy-4-({2-[4-(methylsulfonamido)phenyl]thiazol-5-yl}methyl)-5-oxo-4,5-dihydrothieno[3,2-b]pyridine-7-carboxylic acid], the IC50 against hEXO1, Isoform1 is 750 to 2250 nM; at hFEN1, less than 200 nM.

Regarding `O=C(O)c1c(O)c(=O)n(Cc2cnc(-c3cccc4cnccc34)s2)c2ccsc12` [Example 168, 6-hydroxy-4-{[2-(isoquinolin-5-yl)thiazol-5-yl]methyl}-5-oxo-4,5-dihydrothieno[3,2-b]pyridine-7-carboxylic acid], the IC50 against hEXO1, Isoform1 was in the range of 2250 to 10000 nM; against hFEN1, 2250 to 10000 nM.

For `O=C(O)c1c(O)c(=O)n(Cc2cnc(-c3cccc4ncccc34)s2)c2ccsc12` [Example 169, 6-hydroxy-5-oxo-4-{[2-(quinolin-5-yl)thiazol-5-yl]methyl}-4,5-dihydrothieno[3,2-b]pyridine-7-carboxylic acid], the IC50 against hEXO1, Isoform1 is 750 to 2250 nM; against hFEN1 it was 2250 to 10000 nM.

For `O=C(O)c1c(O)c(=O)n(Cc2cnc(-c3ccnc4ccccc34)s2)c2ccsc12` [Example 170, 6-hydroxy-5-oxo-4-{[2-(quinolin-4-yl)thiazol-5-yl]methyl}-4,5-dihydrothieno[3,2-b]pyridine-7-carboxylic acid], the IC50 on hEXO1, Isoform1 was in the range of 750 to 2250 nM; against hFEN1 it was 750 to 2250 nM.
